Here are results for five molecules from patent US20240391937A1, “BICYCLIC DERIVATIVE PARP INHIBITOR AND USE THEREOF” (XIZANG HAISCO PHARMACEUTICAL CO., LTD., priority 2021, published 2024).

The structures appear in SMILES notation. Where two headings read alike, the source gives them in different places.

One series addresses T1, PARP-1 enzyme (Homo sapiens, UniProt P09874).
T1 construct: purchased BPS Bioscience
The experiment in a line: PARP-1 enzyme activity test (BPS Bioscience chemiluminescence kit). Format: biochemical. Here is the method:
PARP-1 chemical […] detection kit was purchased from BPS Bioscience. The histone solution in the kit was diluted 5× with 1×PBS, and 25 μL of the diluted histone solution was added to a microwell plate and incubated overnight at 4° C. After the incubation, the plate was washed three times with PBST (0.05% Tween-20). 100 μL of the blocking solution was added to the microwell plate and incubated at 25° C. for 90 minutes. After the incubation, the plate was washed three times with PBST. 2.5 μL of compounds at different concentrations diluted in test buffer and 12.5 μL of substrate mixed solution (1.25 μL 10× PARP test buffer; 1.25 μL 10× PARP test mixed solution; 2.5 μL Activated DNA, 7.5 μL double-distilled water) were added to the microwell plate. The PARP-1 enzyme was diluted to 2 ng/μL, 10 μL of the diluent was added to the microwell plate, and the reaction system was incubated at 25° C. for 60 minutes.
After the incubation, the plate was washed three times with PBST. Streptavidin-HRP was diluted 50× with a blocking solution, and 25 μL of the diluent was added to the microwell plate and incubated at 25° C. for 30 minutes. After the incubation, the plate was washed three times with PBST. ELISA ECL substrate A and substrate B were mixed at a ratio of 1:1 (v/v), 50 μL of the mixture was added to the microwell plate, and the chemiluminescence value was read.
The inhibition rate was calculated according to formula 1, where RLUsample was the readout of the compound well, RLUmax was the readout of the solvent control well, and RLUmin was the readout of the control well without the PARP-1 enzyme. Curve fitting was performed by four parameters (log (inhibitor) vs. response—Variable slope) using GraphPad Prism software, and the IC50 value was calculated.

The test system of another series is MDA-MB-436 cells. Briefly: MDA-MB-436 cell activity test (CellTiter-Glo, 7 days). Format: cell-based. The note with it: Homo sapiens; for IC50: MDA-MB-436, 168 h, 7 days incubation; for inhibition at 10 µM: MDA-MB-436 cells, read-out: Max inh. % 10 μM. Here is the method:
Breast tumor cells MDA-MB-436 were purchased from ATCC, the culture medium was Leibovitz's L-15+10% FBS, and the cells were cultured in a CO2-free incubator at 37° C. On day 1, the cells in the exponential growth phase were collected, and the cell suspension was adjusted to 4000 cells/135 μL with the culture medium. 135 μL of the cell suspension was added to each well of a 96-well cell culture plate and incubated overnight. On day 2, compounds at different concentrations were added, and the plate was placed in the incubator and incubated for 7 days. After the incubation was completed, according to operation instructions for a CellTiter-Glo kit (Promega, G7573), 75 μL of CTG solution, which was already pre-melted and equilibrated to room temperature, was added to each well, and the mixture was uniformly mixed for 2 min using a microplate shaker. The plate was placed at room temperature for 10 min, and then […] were measured using an Envision2104 plate reader (PerkinElmer). The inhibition rate was calculated using formula (1), where RLUcompound was the readout of the drug treated group, RLUcontrol was the average value of the vehicle control group, and RLUblank was the average value of the cell-free well. The IC50 value was calculated using GraphPad Prism software.
On the technique in general: ATP-based viability assays read luminescence as a measure of living cells.

The nature of series [1]: Pharmacokinetic test in mice. Format: in vivo, ICR mice. Here is the method:
• 3.1 Experimental animals: male ICR mice, 20-25 g, 18 mice/compound. purchased from Chengdu Ddossy Experimental Animals Co., Ltd. • 3.2 Experimental design: on the day of the test, 18 ICR mice were randomly grouped according to their body weights. the animals were fasted with water available for 12 to 14 h one day before the administration, and were fed 4 h after the administration. [table] Before and after the administration, 0.06 mL of blood was taken from the orbit of the animals under isoflurane anesthesia and placed in an EDTAK2 centrifuge tube. The blood was centrifuged at 5000 rpm and 4° C. for 10 min to collect plasma. The blood collection time points for the intravenous group and intragastric administration group were: 0 min, 5 min, 15 min, 30 min, 1 h, 2 h, 4 h, 6 h, 8 h, and 24 h. Before analysis and detection, all samples were stored at −80° C., and a quantitative analysis of samples was performed using LC-MS/MS.

Series [2] can be described thus: Pharmacokinetic test in rats. Format: in vivo, SD rats. Here is the method: • 1.1 Experimental animals: male SD rats, about 220 g, 6-8 weeks old, 6 rats/compound, purchased from Chengdu Ddossy Experimental Animals Co., Ltd. • 1.2 Experimental design: on the day of the test, 6 SD rats were randomly grouped according to their body weight; the animals were fasted with water available for 12 to 14 h one day before the administration, and were fed 4 h after the administration.
Before and after the administration, 0.15 ml of blood was taken from the orbit of the animals under isoflurane anesthesia and placed in an EDTAK2 centrifuge tube. The blood was centrifuged at 5000 rpm and 4° C. for 10 min to collect plasma. The blood collection time points for the intravenous administration group and intragastric administration group were: 0, 5 min, 15 min, 30 min, 1 h, 2 h, 4 h, 6 h, 8 h, and 24 h. Before analysis and detection, all samples were stored at −80° C., and a quantitative analysis of samples was performed using LC-MS/MS.

Where [3] appears, read: grades, read-out: PARP-1 enzyme activity IC50.
[4] abbreviates: values in text, read-out: IC50 values on PARP-1.
[5] abbreviates: male, ICR, mouse, iv, mice, i.v. 2.5 mg/kg, plasma.
Setting [6] is: male, SD, rat, iv, rats, i.v. 2.5 mg/kg, plasma.

T1 sequence (P09874 whole entry): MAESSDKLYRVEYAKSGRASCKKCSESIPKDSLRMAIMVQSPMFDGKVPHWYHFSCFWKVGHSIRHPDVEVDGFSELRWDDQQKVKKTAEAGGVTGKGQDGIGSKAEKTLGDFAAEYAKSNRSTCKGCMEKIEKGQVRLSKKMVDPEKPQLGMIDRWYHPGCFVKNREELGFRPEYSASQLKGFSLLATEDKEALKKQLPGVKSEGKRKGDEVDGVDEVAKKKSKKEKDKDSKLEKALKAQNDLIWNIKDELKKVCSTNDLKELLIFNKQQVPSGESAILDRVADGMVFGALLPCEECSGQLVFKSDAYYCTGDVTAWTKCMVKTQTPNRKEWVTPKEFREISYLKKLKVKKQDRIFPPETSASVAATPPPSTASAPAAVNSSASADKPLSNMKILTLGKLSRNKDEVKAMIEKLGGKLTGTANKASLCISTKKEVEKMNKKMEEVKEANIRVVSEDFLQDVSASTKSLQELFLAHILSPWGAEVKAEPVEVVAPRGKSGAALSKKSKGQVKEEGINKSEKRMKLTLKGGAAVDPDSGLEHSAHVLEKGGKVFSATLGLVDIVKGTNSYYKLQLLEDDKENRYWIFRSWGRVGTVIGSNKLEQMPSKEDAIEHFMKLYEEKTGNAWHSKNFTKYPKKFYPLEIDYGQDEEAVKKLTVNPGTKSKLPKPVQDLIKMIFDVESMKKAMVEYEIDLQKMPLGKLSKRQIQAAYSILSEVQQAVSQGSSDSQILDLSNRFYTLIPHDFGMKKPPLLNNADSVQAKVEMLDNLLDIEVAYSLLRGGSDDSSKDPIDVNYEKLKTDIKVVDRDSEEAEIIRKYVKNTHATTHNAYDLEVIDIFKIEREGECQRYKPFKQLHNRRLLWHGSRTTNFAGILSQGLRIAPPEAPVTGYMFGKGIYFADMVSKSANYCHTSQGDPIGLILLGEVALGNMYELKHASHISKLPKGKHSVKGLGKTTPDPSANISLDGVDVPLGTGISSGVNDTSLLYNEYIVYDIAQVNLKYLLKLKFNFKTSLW

Broadly, the IC50 is the concentration needed to halve the response being measured. On to `Cn1cc(NC(=O)c2ccc(N3CCN(Cc4cnc5cc(C6CC6)c(=O)[nH]c5c4)CC3)cn2)cn1` [Compound 6, 5-(4-((7-cyclopropyl-6-oxo-5,6-dihydro-1,5-naphthyridin-3-yl)methyl)piperazin-1-yl)-N-(1-methyl-1H-pyrazol-4-yl)picolinamide], for which the IC50 at PARP-1 enzyme (setting [3]) was at most 1 nM; at PARP-1 enzyme (setting [4]) it was 0.54 nM; with MDA-MB-436 cells, 2.8 nM. For the same molecule, in the series with MDA-MB-436 cells, the inhibition at 10 µM stood at 85.4%.

Take `O=C(NC1CC1)c1ccc(N2CCN(Cc3cnc4cc(C5CC5)c(=O)[nH]c4c3)CC2)cn1` [Compound 5, N-cyclopropyl-5-(4-((7-cyclopropyl-6-oxo-5,6-dihydro-1,5-naphthyridin-3-yl)methyl)piperazin-1-yl)picolinamide]: the IC50 at PARP-1 enzyme (setting [3]) was at most 1 nM; at PARP-1 enzyme (setting [4]) it was 0.74 nM; in the series on MDA-MB-436 cells, 5.6 nM. In the series with MDA-MB-436 cells, the inhibition at 10 µM came out at 80.7%.

By AUC(0-t) is commonly meant the area under the concentration-time curve up to a stated or last time point. Low readings indicate less exposure, high ones more exposure. The term clearance denotes the volume of plasma or blood freed of the substance per unit of time. Lower therefore signals inefficient removal. For `O=C(NC1CC1)c1ccc(C2=CCN(Cc3cnc4cc(C5CC5)c(=O)[nH]c4c3)CC2)cn1` [Compound 3, N-cyclopropyl-1′-((7-cyclopropyl-6-oxo-5,6-dihydro-1,5-naphthyridin-3-yl)methyl)-1′,2′,3′,6′-tetrahydro-[3,4′-bipyridine]-6-carboxamide], the IC50 on PARP-1 enzyme (setting [3]) was at most 1 nM; at PARP-1 enzyme (setting [4]) it was 0.6 nM; in the series with MDA-MB-436 cells it was 4.5 nM. Further, the inhibition at 10 µM with MDA-MB-436 cells was found to be 82.1%. For the same molecule, in series [1] (conclusion in words), the “pharmacokinetic characteristics in mice” value is reported as “good pharmacokinetic characteristics”. The AUC(0-t) came out at 108 µg·h/mL in series [1] (setting [5]) and 707 µg·h/mL in series [1] (male, ICR, mouse, po, mice, i.g. 10 mg/kg, plasma). The clearance in series [1] (setting [5]) stood at 0.346 mL/min/kg. Further, the Vd in series [1] (male, ICR, mouse, iv, mice, i.v. 2.5 mg/kg, plasma, read-out: Vdss) amounted to 0.207 L/kg. In series [1] (mice, i.g. 10 mg/kg), this molecule registered an F of 164%.

For the molecule `O=c1[nH]c2cc(CN3CCN(c4cn5cc(C(F)(F)F)nc5cn4)CC3)cnc2cc1C1CC1` [Compound 8, 3-cyclopropyl-7-((4-(2-(trifluoromethyl)imidazo[1,2-a]pyrazin-6-yl)piperazin-1-yl)methyl)-1,5-naphthyridin-2(1H)-one], at PARP-1 enzyme (setting [4]), the IC50 amounted to 1.2 nM. Further, in the series with MDA-MB-436 cells, it took 1.1 nM to reach half-maximal inhibition (IC50) and the inhibition at 10 µM is 97.4%.

Take `CNC(=O)c1ccc(N2CCN(Cc3cnc4cc(C5CC5)c(=O)[nH]c4c3)CC2)cn1` [Compound 2, 5-(4-((7-cyclopropyl-6-oxo-5,6-dihydro-1,5-naphthyridin-3-yl)methyl)piperazin-1-yl)-N-methylpicolinamide]: the IC50 was at most 1 nM on PARP-1 enzyme (setting [3]), 0.9 nM on PARP-1 enzyme (setting [4]) and 5.1 nM in the series on MDA-MB-436 cells. The inhibition at 10 µM with MDA-MB-436 cells came to 86.3%. Moreover, the “pharmacokinetic characteristics in rats” value in series [2] (conclusion in words) was “good pharmacokinetic characteristics”. The AUC(0-t) came to 70.8 µg·h/mL in series [2] (setting [6]) and 206 µg·h/mL in series [2] (male, SD, rat, po, rats, i.g. 10 mg/kg, plasma). For the same molecule, in series [2] (setting [6]), the clearance amounted to 0.585 mL/min/kg. In addition, in series [2] (male, SD, rat, iv, rats, i.v. 2.5 mg/kg, plasma, read-out: Vdss), the Vd is 0.169 L/kg. For the same molecule, in series [2] (rats, i.g. 10 mg/kg), the F is recorded as 72.6%.
